Experimental data: patent US20120065365A1, “Stable Radiopharmaceutical Compositions and Methods for Their Preparation” (BRACCO IMAGING S.P.A., priority 2003, published 2012)
Like-named read-outs stand apart in the source and are kept apart here.

Key:
[1] = type: physicochemical; conditions: ^177Lu-A (3.6 mCi) prepared in presence of 2.5 mg/mL stabilizer
Description: To lead-shielded 4-mL vials was added 200 μL of the individual NaOAc-stabilizer solutions, 3.58 mCi ^177LuCl3 (avg) and 5.08 μg COMPOUND A (dissolved in water). The ratio of COMPOUND A to Lutetium was 3:1 for all samples. The reaction mixtures were heated to 100° C. for 5 minutes, then cooled, treated with Na2EDTA.2H2O, subdivided and stored as described in Example 9. The radiochemical purity (RCP) percentage data obtained are listed Table 12.

[2] = Labeling efficiency and stability of ^111In-B with selenomethionine 2.5 mg/mL (Example 21); type: physicochemical
Description: A solution of L-selenomethionine (20 mg/mL) was prepared by dissolving it in NaOAc buffer (0.2 M, pH 4.0). To a lead-shielded 2-mL vial was added 111 μL of NaOAc buffer (0.2 M, pH 4.0), 25 μL selenomethionine solution (0.5 mg of Se-Met), 4 μL of COMPOUND B (20 μg in 0.01 N HCl) and 1.0 mCi ^111InCl3 in 60 μL of 0.05 N HCl. A control reaction was run containing all reagents above, but substituting NaOAc buffer for the Se-Met solution. The reaction mixtures were heated at 100° C. for 15 minutes, and then cooled for 1 minute in an ambient-temperature water bath. To each sample, 200 μL of stabilizing solution (0.2% HSA, 5% ascorbic acid, 0.9% benzyl alcohol, 20 mM Se-Met in 50 mM citrate buffer, pH 5.3) and 2 μL of 1% Na2EDTA.2H2O in water were added, and then each was analyzed stored at room temperature for up to 6 hours and analyzed by HPLC as described below. HPLC conditions: Vydac C18 column, 4.6×250 mm, 5 μM, 1.5 mL/min flow rate at 30° C. Solvent A: 0.1% TFA in water; Solvent B: 0.085% TFA in acetonitrile. Gradient: 80% A/20% B isocratic for 20 min, ramp up to 40% A/60% B in 5 min, hold for 5 mm, return to 80% A/20% B in 5 min.

[3] = type: physicochemical
Description: The reaction vial was crimp-sealed and heated at 100° C. for 5 min. […] The sample was stored in an autosampler in which the temperature is ˜6° C. […] than room temperature, and analyzed by RP-HPLC for up to 24 hours.
L-Selenomethionine: ^177Lu-B was prepared, diluted and analyzed as described above, but 5 mg of L-Se-Met was used in place of PDTC, the heating time was 10 minutes, and the quantity of radioactivity used was 52 mCi.
L-cysteine ethyl ester, HCl: ^177Lu-B was prepared, diluted and analyzed as described above, but 5 mg of L-CEE, hydrochloride salt was used in place of PDTC, the heating time was 5 minutes and the quantity of radioactivity used was 50 mCi.
L-cysteine HCl.H2O: ^177Lu-B was prepared, diluted and analyzed as described above, but 5 mg of L-Cys HCl.H2O was used in place of PDTC, the heating time was 8 minutes and the quantity of radioactivity used was 53 mCi.

[4] = type: physicochemical; remark: listed apart in the source
Description: (§1) The injection volume was 20 μL.
Each stabilizer was prepared at a concentration of 5 mg/mL in sodium acetate (NaOAc) buffer (0.2 M, pH 4.8). To lead-shielded 4-mL vials were added 200 μL of the individual stabilizer solutions, 3.55 mCi ^177LuCl3 (avg) and 5.44 μg COMPOUND A (dissolved in water). A second set of replicates of each sample was prepared, using the individual stabilizers. To these was added 4.37 mCi ^177LuCl3 (avg) and 6.7 μg (avg) COMPOUND A (dissolved in water). The ratio of COMPOUND A to lutetium was 3:1 for all samples. The reaction mixture was heated to 100° C. for 5 minutes then cooled for 5 minutes in an ambient-temperature water bath. To each sample, 10 μL of 2% Na2EDTA.2H2O in water was added, then each was analyzed by HPLC (Method 1 for the first set of replicates; Method 2 for the second set of replicates). The second set of replicates were stored and analyzed again at t=24 h.

[5] = type: physicochemical; conditions: ^177Lu-A (2.7-3.7 mCi) prepared in presence of 1 mg/mL stabilizer
Description: The injection volume was 10 μL.
Each individual stabilizer was prepared at a concentration of 1 mg/mL in sodium acetate (NaOAc) buffer (0.2 M, pH 4.8). […] The reaction mixture was heated to 100° C. for 5 minutes, and then cooled for 5 minutes in an ambient-temperature water hath. To each sample, 10 μL of 2% Na2EDTA.2H2in water was added, and then each was divided into two 100-μL aliquots. One aliquot was analyzed by HPLC (Method 5) and then stored at room temperature in a sealed lead container for 24 hours. The other aliquot was stored frozen (−10° C.) for 24 hours. Each sample was analyzed at t=24 h.

[6] = Radiostability (RCP, Met═O by HPLC) of preformed ^177Lu-A with individual amino acids added (Example 1); type: physicochemical; conditions: amino acid 6.6 mg/mL, room temperature
Description: as §1
Solutions of the individual amino acids L-Methionine, L-Selenomethionine, L-cysteine HCl.H2O, L-Tryptophan, L-Histidine, and Glycine were prepared at a concentration of 10 mg/mL in 10 mM Dulbecco's phosphate-buffered saline, pH 7.0 [PBS].
The final radioactive concentration of each sample was ˜20 mCi/mL.

[7] = type: physicochemical; conditions: 50 mCi/2 mL in Radiolysis Protecting Solution containing L-methionine, room temperature
Description: as §1
A Radiolysis Protecting Solution was prepared to contain 10 mg/mL gentisic acid; 50 mg/mL ascorbic acid sodium salt; 2 mg/mL HSA; 2.98 mg/mL L-methionine, 0.9% (v:v) benzyl alcohol and 1 mg/mL of Na2EDTA.2H2O in 0.05 M, pH 5.3 citrate buffer. […] The mixture was incubated at 100° C. for 5 min, and then cooled to room temperature with a water bath. A 1-mL aliquot of the Radiolysis Protecting Solution was immediately added. The reaction vial was stored in an autosampler chamber and the stability was analyzed by Reversed Phase HPLC over time, using HPLC Methods 3 and 4. The results obtained for ^177Lu-B are shown in the chromatograms in FIG. 9.

[8] = type: physicochemical; conditions: Radiolysis Protecting Solution containing L-selenomethionine, room temperature
Description: ^177Lu-A and ^177Lu-B were prepared at a 50 mCi level as described in EXAMPLE 4. Immediately after cooling the reaction mixtures to room temperature, 1 mL of a Radiolysis Protecting solution was added, containing 10 mg/mL gentisic acid; 50 mg/mL ascorbic acid sodium salt; 2 mg/mL HSA; 3.92 mg/mL L-selenomethionine, 0.9% (v:v) benzyl alcohol and 1 mg/mL of Na2EDTA.2H2O in 0.05 M, pH 5.3 citrate buffer. The reaction vials were stored in the autosampler chamber and the stability was analysed by RP-HPLC over time using HPLC Methods 3 [^177Lu-A] or 4 [^177Lu-B].

[9] = type: physicochemical; remark: listed apart in the source
Description: The reaction vial was crimp-sealed and heated at 100° C. for 10 min. […] The sample was stored in an autosampler in which the temperature is ˜6° C. […] than room temperature, and analyzed by RP-HPLC for up to 120 hours.

[10] = Stability in Radiolysis Protecting Solution containing methionine (FIG. 4 and similar study); type: physicochemical; conditions: 104 mCi, diluted 1:1 with radiolysis protecting solution (2 mg/mL DL-methionine) added after complex formation, room temperature
Description: Formulations stabilized by such cocktails maintained excellent radiochemical purity (RCP) values (>95% RCP) for as long as 5 days at room temperature. This stabilizing cocktail is added immediately after formation of the radioactive complex, so would be the second vial of a two-vial kit.

Compound: C[Se]CC[C@H](N)C(=O)O [L-Selenomethionine]
- RCP % t = 24 h (frozen) ([1]; 24 h frozen): 94.7%
- RCP % t = 24 h (room temp) ([1]; 24 h room temp): 95.6%
- RCP % t = 0 h ([1]; t = 0 h): 95.7%
- RCP, % t = 0 ([2]; ^111In-B (1.0 mCi) prepared in presence of selenomethionine 2.5 mg/mL, stabilizing solution added after, t = 0): 98.3%
- RCP, % t = 6 h ([2]; ^111In-B prepared in presence of selenomethionine 2.5 mg/mL, room temperature, 6 h): 96.6%
- (% RCP) 3-h ([3]; ^177Lu-B (44-53 mCi) formulated with 5 mg stabilizing compound, 3 h): 94.6%
- (% RCP) 6-h ([3]; ^177Lu-B (44-53 mCi) formulated with 5 mg stabilizing compound, 6 h): 94.4%
- (% RCP) 9-h ([3]; ^177Lu-B (44-53 mCi) formulated with 5 mg stabilizing compound, 9 h): 93.3%
- (% RCP) 12-h ([3]; ^177Lu-B (44-53 mCi) formulated with 5 mg stabilizing compound, 12 h): 92.6%
- (% RCP) 24-h ([3]; ^177Lu-B (44-53 mCi) formulated with 5 mg stabilizing compound, 24 h): 90.6%
- (% RCP) 0-h ([3]; ^177Lu-B (44-53 mCi) formulated with 5 mg stabilizing compound, diluted to ~2 mL, ~6° C. above room temperature, 0 h): 95.0%
- RCP Drop over 24 hr ([3]; ^177Lu-B formulated with 5 mg stabilizing compound, 0 to 24 h): 4.4%
- Replicate 1 RCP % t = 0 h ([4]; ^177Lu-A (3.55 mCi avg) prepared in presence of 5 mg/mL stabilizer, HPLC Method 1, t = 0 h): 57.5%
- Replicate 2 RCP % t = 0 h ([4]; ^177Lu-A (4.37 mCi avg) prepared in presence of 5 mg/mL stabilizer, HPLC Method 2, t = 0 h): 60.6%
- Replicate 2 RCP % t = 24 h ([4]; ^177Lu-A (4.37 mCi avg) prepared in presence of 5 mg/mL stabilizer, HPLC Method 2, t = 24 h): 57.1%
- RCP % t = 24 h (frozen) ([5]; 24 h frozen (−10° C.)): 99.2%
- RCP % t = 24 h (room temp) ([5]; 24 h room temp): 100%
- RCP % t = 0 h ([5]; t = 0 h): 100%
- 0-1 h RCP (%) ([6]; ^177Lu-A ~20 mCi/mL (3.5 mCi total), 0-1 h): 100%
- 24-h RCP (%) ([6]; ^177Lu-A ~20 mCi/mL, 24 h): 99.1%
- 48-h RCP (%) ([6]; ^177Lu-A ~20 mCi/mL, 48 h): 99.9%

Compound: ^177Lu-B: the ^177Lu complex of DOTA-Gly-Abz4-Gln-Trp-Ala-Val-Gly-His-Leu-Met-NH2
- % RCP 0-d ([7]; 0 d): 99.8%
- % RCP 1-d ([7]; 1 d): 99.3%
- % RCP 2-d ([7]; 2 d): 99.6%
- % RCP 5-d ([7]; 5 d): 99.8%
- % RCP 0-d ([8]; 50 mCi level, 0 d): 95.8%
- % RCP 1-d ([8]; 1 d): 95.7%
- % RCP 2-d ([8]; 2 d): 96.2%
- % RCP 3-d ([8]; 3 d): 96.7%
- % RCP 5-d ([8]; 5 d): 98.4%
- RCP (%) ([9]; 110.5 mCi, prepared with L-selenomethionine 2.94 mg/mL, then 4 mL saline with sodium ascorbate 50 mg/mL and benzyl alcohol, 0 hours post-reconstitution): 99.5%
- RCP (%) ([9]; L-selenomethionine 2.94 mg/mL plus ascorbate/benzyl alcohol saline, 120 (5 days) hours post-reconstitution): 99.8%
- RCP (%) ([9]; L-selenomethionine 2.94 mg/mL plus ascorbate/benzyl alcohol saline, 2 hours post-reconstitution): 99.6%
- RCP (%) ([9]; L-selenomethionine 2.94 mg/mL plus ascorbate/benzyl alcohol saline, 3 hours post-reconstitution): 99.5%
- RCP (%) ([9]; L-selenomethionine 2.94 mg/mL plus ascorbate/benzyl alcohol saline, 6 hours post-reconstitution): 99.0%
- RCP (%) ([9]; L-selenomethionine 2.94 mg/mL plus ascorbate/benzyl alcohol saline, 9 hours post-reconstitution): 99.4%
- RCP (%) ([9]; L-selenomethionine 2.94 mg/mL plus ascorbate/benzyl alcohol saline, 12 hours post-reconstitution): 99.2%
- RCP (%) ([9]; L-selenomethionine 2.94 mg/mL plus ascorbate/benzyl alcohol saline, 24 hours post-reconstitution): 99.4%
- RCP for 5 days [10]: > 99%
